In patent publication US10674755B2, “Organic Compounds” (GIVAUDAN SA, priority 2013, dated 2020):

How the values were obtained:
[1] = Mango-flavoured beverage taste evaluation by a panel of experienced tasters; conditions: 0.5 ppm dosed to mango drink (mango flavour 0.05% w/w, mango juice 0.18% w/w, sugar 8% w/w, citric acid 0.1% w/w)
Procedure: A mango-flavoured beverage was prepared using a standard mango flavour (0.05% w/w), mango juice (0.18% w/w), sugar (8% w/w) and citric acid (0.1% w/w).

[2] = Beef bouillon taste evaluation by a panel of experienced tasters
Procedure: A beef bouillon was prepared using bouillon cubes obtained from a local supermarket.

[3] = 0.5 ppm dosed to beef bouillon from bouillon cubes
[4] = 40 ppb added to beef bouillon from bouillon cubes

Row | Structure (SMILES) | taste of the mango drink versus the reference drink (panel agreement) [1] | taste of the bouillon versus the reference (panel agreement) [2, 3] | taste of the bouillon versus the reference (panel agreement) [2, 4]
1 | CCCCCCCC/C=C\CCCCCCCC(=O)NCCCSC [Example 2, N-(3-(methylthio)propyl)oleamide] | tasted more tropical and more juicy than the reference drink |  | 
2 | CCCCCCCC/C=C\CCCCCCCC(=O)NCCC(C)C [Example 4, N-isopentyloleamide] | tasted somewhat more astringent and fruity and had more body |  | 
3 | CCCCCCCC/C=C\CCCCCCCC(=O)NCCCC(N)=O [Example 6, N-(4-amino-4-oxobutyl)oleamide] |  | tasted more full and had more mouthfeel than the reference | 
4 | CC/C=C\C/C=C\C/C=C\CCCCCCCC(=O)NCCO [Example 8, N-(2-hydroxyethyl)linolenamide] |  |  | tasted more fatty, and slightly more salty than the reference
5 | CCCCCCCCCCCCCCCCCCCC(=O)NCCO [Example 9, N-(2-hydroxyethyl)eicosanamide] |  |  | tasted more fatty, beefier and smoky, tasted more fully and had more body than the reference
6 | CCCCC/C=C\C/C=C\C/C=C\C/C=C\CCCC(=O)NCCO [Example 10, N-(2-hydroxyethyl)arachidonamide] |  | had more mouthfeel and tasted more salty and more umami than the reference | tasted saltier, sweeter, more fatty and slightly more umami than the reference, and had more mouthfeel
